In patent publication US20080152715A1, “Method for preparing nanoparticles comprising vitamin K and poly-isopropyl-butyl methacrylate-acrylic acid copolymer with supercritical fluid using molecular association theory” (Seoul National Universtiy Industry Foundation, priority 2006, published 2008):

Experiment: Particle size measurement using a Particle Size Analyzer
Format: physicochemical
Settings: pretreated vitamin K, before the supercritical process
Description: The pretreated vitamin K has a particle size of 50 to 100 microns. In Examples, the particle sizes of vitamin K nanoparticles prepared by the following conditions were measured using a Particle Size Analyzer. Here, spherical fine particles having a particle size of 50 to 300 nm can be obtained according to the presence or absence of a poly-isopropyl-butyl methacrylate-acrylic acid copolymer as a biodegradable polymer, and the operating conditions.
As shown in the following Table 1, the present Examples represent the operating conditions of the reactor in the step of formation of a spherical structure. The temperature and the pressure of the reactor must be each above 304.2 K and 73.8 bar, which correspond to the critical temperature and the critical pressure of carbon dioxide, respectively. The operating parameters in the reactor are the temperature and the pressure in reactor, the amount of carbon dioxide as a supercritical fluid, and the amount of solution prepared in the preparation step. In Example 1, the solution contains vitamin K of 0.0016 wt % alone without a biodegradable polymer. In Example 2 to 8, the solution contains both of vitamin K of 0.0016 wt % and the poly-isopropyl-butyl methacrylate-acrylic acid copolymer of 0.0014 wt % as a biodegradable polymer. […] In Examples 1 and 3, the change was measured at 313K and 323K by adjusting the reactor temperature. […]

Which particle size does the source give for vitamin K [pretreated vitamin K] here?
The particle size was 50 to 100 microns.
